Laboratory results published in BindingDB's records for PubMed 32853683 (Peking Union Medical College, 2020).

Legend:
[1] = Inhibition of trypsin-like activity of human 20S proteasome beta 2
[2] = Inhibition of caspase-like activity of human 20S proteasome beta 1

Row | IC50 [1] [µM] | IC50 [2] [µM] | Compound
1 | > 50 | > 50 | CCCc1ccc(OCC(=O)N(Cc2nc(-c3cccnc3)no2)C(C)C)cc1
2 | > 50 | > 50 | CCCc1ccc(OCC(=O)N(Cc2cccc(-c3cccnc3)c2)C(C)C)cc1
3 | > 50 | > 50 | CCCc1ccc(OCC(=O)N(Cc2nc(-c3cccs3)no2)C(C)C)cc1
4 | > 50 | > 50 | CCCc1ccc(OCC(=O)N(Cc2nc(-c3ccco3)no2)C(C)C)cc1
